In PMC10629825, “Genetic validation of PfFKBP35 as an antimalarial drug target” (eLife, 2023):
pEC50: −log10 of the molar value.

Key:
Format in all cases: biochemical
[1] = target: T1, pre-mRNA-splicing factor CEF1 (Plasmodium falciparum, UniProt Q7KQL1); experiment: isothermal dose-response MS-CETSA on parasite protein lysate (putative target)
T1 construct: gene PF3D7_1033600; endogenous protein in parasite lysate

PfFKBP35 = target: T2, PfFKBP35 (Plasmodium falciparum, UniProt Q8I4V8); experiment: isothermal dose-response MS-CETSA on parasite protein lysate ([…]°C); live-cell CETSA EC50 […]
T2 construct: gene FKBP35; endogenous protein in parasite lysate
T2 sequence (Q8I4V8 whole entry): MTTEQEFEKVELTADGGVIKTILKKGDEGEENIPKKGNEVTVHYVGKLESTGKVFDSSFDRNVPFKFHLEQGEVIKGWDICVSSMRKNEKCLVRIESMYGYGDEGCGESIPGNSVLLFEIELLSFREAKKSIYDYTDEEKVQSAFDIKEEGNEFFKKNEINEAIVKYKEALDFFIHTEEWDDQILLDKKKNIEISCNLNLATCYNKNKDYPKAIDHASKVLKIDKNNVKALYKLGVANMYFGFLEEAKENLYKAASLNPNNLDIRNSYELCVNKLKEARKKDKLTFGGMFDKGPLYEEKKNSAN

[2] = target: T3, N6-methyl transferase MT-A70 (Plasmodium falciparum, UniProt Q8I6Z2); experiment: isothermal dose-response MS-CETSA on parasite protein lysate (putative target)
T3 construct: gene PF3D7_0729500; endogenous protein in parasite lysate
T3 sequence (Q8I6Z2 entry or part of it): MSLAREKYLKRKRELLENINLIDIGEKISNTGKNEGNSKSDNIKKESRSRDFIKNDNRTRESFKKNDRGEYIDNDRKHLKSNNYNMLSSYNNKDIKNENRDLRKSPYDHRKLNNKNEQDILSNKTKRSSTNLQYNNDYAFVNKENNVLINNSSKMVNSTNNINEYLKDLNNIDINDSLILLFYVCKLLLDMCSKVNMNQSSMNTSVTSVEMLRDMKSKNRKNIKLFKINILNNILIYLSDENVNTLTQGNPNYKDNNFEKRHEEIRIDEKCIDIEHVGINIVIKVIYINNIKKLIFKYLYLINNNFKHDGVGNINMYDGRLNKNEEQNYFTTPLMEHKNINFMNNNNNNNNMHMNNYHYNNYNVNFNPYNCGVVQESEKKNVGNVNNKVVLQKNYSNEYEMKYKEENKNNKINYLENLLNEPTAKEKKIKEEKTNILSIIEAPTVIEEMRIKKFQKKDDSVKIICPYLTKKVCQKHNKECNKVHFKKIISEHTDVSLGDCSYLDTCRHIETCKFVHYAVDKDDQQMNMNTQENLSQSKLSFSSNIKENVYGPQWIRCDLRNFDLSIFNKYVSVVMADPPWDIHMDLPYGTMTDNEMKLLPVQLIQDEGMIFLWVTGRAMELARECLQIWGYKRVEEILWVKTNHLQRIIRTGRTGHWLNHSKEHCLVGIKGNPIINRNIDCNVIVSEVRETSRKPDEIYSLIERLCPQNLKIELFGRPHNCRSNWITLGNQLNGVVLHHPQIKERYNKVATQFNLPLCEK

T1 sequence (Q7KQL1 entry or part of it): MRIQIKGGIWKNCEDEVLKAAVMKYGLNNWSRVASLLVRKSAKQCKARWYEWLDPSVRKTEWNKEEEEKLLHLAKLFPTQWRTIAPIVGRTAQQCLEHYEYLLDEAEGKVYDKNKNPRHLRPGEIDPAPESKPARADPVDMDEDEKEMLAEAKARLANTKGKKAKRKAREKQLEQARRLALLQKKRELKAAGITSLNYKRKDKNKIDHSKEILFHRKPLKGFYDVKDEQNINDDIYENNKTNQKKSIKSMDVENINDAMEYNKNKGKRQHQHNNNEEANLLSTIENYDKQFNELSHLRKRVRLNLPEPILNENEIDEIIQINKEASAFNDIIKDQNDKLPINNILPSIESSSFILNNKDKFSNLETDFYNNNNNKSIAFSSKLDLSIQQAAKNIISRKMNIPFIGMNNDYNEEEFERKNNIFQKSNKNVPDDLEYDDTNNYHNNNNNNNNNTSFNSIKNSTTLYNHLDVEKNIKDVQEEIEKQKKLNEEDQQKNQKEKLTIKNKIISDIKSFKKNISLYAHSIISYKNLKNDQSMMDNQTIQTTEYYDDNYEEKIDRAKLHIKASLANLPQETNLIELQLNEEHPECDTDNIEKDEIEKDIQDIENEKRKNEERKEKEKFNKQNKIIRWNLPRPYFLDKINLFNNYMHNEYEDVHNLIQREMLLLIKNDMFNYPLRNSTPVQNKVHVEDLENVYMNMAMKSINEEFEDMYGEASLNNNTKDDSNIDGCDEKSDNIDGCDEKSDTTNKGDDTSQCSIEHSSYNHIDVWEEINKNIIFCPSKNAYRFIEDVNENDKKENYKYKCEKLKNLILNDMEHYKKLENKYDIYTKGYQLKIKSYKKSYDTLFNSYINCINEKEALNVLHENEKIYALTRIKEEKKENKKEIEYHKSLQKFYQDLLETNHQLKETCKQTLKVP

C=CC[C@@H]1/C=C(\C)C[C@H](C)C[C@H](OC)[C@H]2O[C@@](O)(C(=O)C(=O)N3CCCC[C@H]3C(=O)O[C@H](/C(C)=C/[C@@H]3CC[C@@H](O)[C@H](OC)C3)[C@H](C)[C@@H](O)CC1=O)[C@H](C)C[C@@H]2OC [FK506]
pEC50 [1]: 5.51 | pEC50 (PfFKBP35): 6.82 | pEC50 [2]: 5.70
